In general, melting point refers to the temperature, or range, at which the solid turns liquid. The compound `CC1CCc2cc3c(cc2N1C(=O)c1ccccc1)CCC(C)N3C(=O)c1ccccc1` (centres undefined) yielded a melting point of 270 °C.

For `CC12CCC3c4ccc(OC(=O)Cc5ccc(N(CCCl)CCCl)cc5)cc4CCC3C1CCC2OC(=O)Cc1ccc(N(CCCl)CCCl)cc1` (centres undefined), the melting point was 52.5 °C.

Consider `Clc1ccc2nc(N3CCCNCC3)sc2c1`, for which the melting point lay within 103 to 105 °C.

As for `Cc1cc(C)c(N)c(Br)c1`, the melting point amounted to 44 °C.

In turn, `OCc1cccc(CO)n1` registered a melting point of 112 to 115 °C.

The compound `CC(=O)Nc1ccccc1C(F)(F)F` came in with a melting point of 96 °C.

Compound `C[C@H]1C(=O)[C@H]2[C@@H](C[C@H]1C#N)C2(C)C` had a melting point of 54.5 °C.

`O=C(O)c1cc2cc(Br)ccc2o1` showed a melting point of 257 to 260 °C.

For the compound `OCCC(F)(F)C(F)(F)C(F)(F)C(F)(F)F`, the melting point was -58 °C.

For the compound `CC(C)CCC(C)C`, the melting point was -91 °C.

Turning to `COC(=O)c1cocc1C(=O)OC`, the melting point lay in the range of 42 to 47 °C.

Consider `COc1ccccc1N/N=C(\C(N)=O)c1nc2ccccc2s1`, for which the melting point stood at 212 °C.

Regarding `COc1ccc(NC(=O)CS)cc1`, the melting point was 118 to 119 °C.

As to `CC(C)=CCC/C(C)=N/NC(N)=O`, the melting point stood at 136 °C.

As to `CC(C)(C)OC(=O)N[C@@H](CC(=O)OCc1ccccc1)C(=O)O`, the melting point is 111 °C.

Compound `c1cc2c(cc1N1N=N1)OCO2` came in with a melting point of 129 °C.

The compound `CC(CN)C(=O)O` (racemic) displayed a melting point of 177 to 181 °C.

On to `CC(C)(C)CC(C)(C)c1ccc(OCCO)cc1`, for which the melting point is -4 °C.

`COC(=O)c1cccc(C=O)c1` registered a melting point of 58 °C.

`Cc1ccccc1CC(=O)O` yielded a melting point of 88 °C.

`CN(C)CCC=C1c2ccccc2CSc2ccccc21` displayed a melting point of 56 °C.

The compound `CC1C(NC(=O)C(=NOC(C)(C)C(=O)O)c2csc(N)n2)C(=O)N1S(=O)(=O)O` (centres undefined) displayed a melting point of 277 °C.

Take `O=C(O)c1ccc(-n2nc(C(=O)c3cccs3)s/c2=N\C(=O)c2ccccc2)cc1`: the melting point stood at 219 °C.

The compound `CCOC(=O)Nc1cccc([N+](=O)[O-])c1[N+](=O)[O-]` yielded a melting point of 102 to 103 °C.

Turning to `Nc1ccc(Cl)c(Cl)c1`, the melting point worked out at 72 °C.

Compound `Cc1ccc(NC=C2C(=O)NN=C2c2c(O)c3ccccc3n(C)c2=O)cc1` had a melting point of 282 °C.

`CCCCCCCCCC(=O)OC`: the melting point is -18 °C.

`CN(C(=S)Cl)c1ccc(F)cc1` returned a melting point of 92 to 94 °C.

`O=C(O)c1cnn(-c2ccc([N+](=O)[O-])cc2)c1C(F)(F)F` gave a melting point of 202 to 204 °C.

In turn, `OC1(c2ccc(Br)cc2)CCNCC1` yielded a melting point of 163 to 168 °C.

`CC(=O)OCC1(C)CCCC23COC4CC5C(C)C(=O)C6(C(CC12)OC(C)(C)OC56)C43` (centres undefined) came in with a melting point of 156 °C.

With `O=C(C(F)(F)F)C(F)(F)Cl`, the melting point was -133 °C.

For the compound `ClC(Cl)=C(Cl)C(Cl)=C(Cl)Cl`, the melting point is -21 °C.

The compound `CN(C)c1ccc(CCC2CCc3ccccc3N2N=O)cc1` (centres undefined) gave a melting point of 91 °C.

`CCCCC#CCCCCC`: the melting point is -74.1 °C.

`Cc1csc2c(Cl)ncnc12` had a melting point of 124 to 125 °C.

With `ClC1CC2CCC1C2` (centres undefined), the melting point is -5 °C.

Compound `COc1ccc(-c2cc(C(F)(F)F)nc(N)n2)cc1` registered a melting point of 191 to 194 °C.

As for `Cc1noc(N)c1[N+](=O)[O-]`, the melting point is 154 to 156 °C.

Compound `O=C(O)c1cc(I)ccc1O` came in with a melting point of 196 to 201 °C.

In turn, `CCC1=C(C)CN(C(=O)NCCc2ccc(S(=O)(=O)NC(=O)NC3CCC(C)CC3)cc2)C1=O` (centres undefined) came in with a melting point of 207 °C.

As to `Cc1c(Br)cc([N+](=O)[O-])c(N)c1C`, the melting point stood at 153 °C.

`O=S(=O)(O)CC(O)CNC(CO)(CO)CO` (centres undefined) showed a melting point of 220 to 221 °C.

For the compound `O=NN1CCc2ccccc21`, the melting point amounted to 83 °C.

On to `CS(=O)(=O)c1ccc2nc(N)sc2c1`, for which the melting point was in the range of 222 to 223 °C.

In turn, `CCCOc1ccc(C(=O)O)cc1` returned a melting point of 145 °C.

Consider `CCC(C#N)CC#N` (centres undefined), for which the melting point is -41 °C.

With `CC1(c2ccccc2)CC(C(=NOCC(=O)c2ccccc2)c2cc3ccccc3o2)C1` (centres undefined), the melting point fell in the range of 154 to 155 °C.

As to `Cc1ccc(S(=O)(=O)NC(=O)NC2C3CCC(C)(C2O)C3(C)C)cc1` (centres undefined), the melting point turned out to be 192 °C.

`CC12CCC3C(C(=O)CC4CC(O)CCC43C)C1CCC2=O` (centres undefined): the melting point was in the range of 199 to 200 °C.

For `ClC=CCCl` (mixture of isomers), the melting point is -50 °C.

For the compound `CCC1(CC)C(=O)CCNC1=O`, the melting point came out at 102 °C.

`CC(=O)c1ccc(-c2cccc([N+](=O)[O-])c2)cc1`: the melting point was 108 °C.

Turning to `C#CCC(C)(C)C`, the melting point is -75 °C.

On to `Clc1cccc2cc[nH]c12`, for which the melting point turned out to be 58 °C.

In turn, `Cc1noc(C)c1C(=O)O` returned a melting point of 141 to 142 °C.

In turn, `CC(=NO)c1ccc(Cl)cc1Cl` returned a melting point of 148 to 151 °C.

Compound `Cc1nn(-c2ccccc2)nc1C(=O)N1CCCC1` returned a melting point of 89 to 90 °C.

`Cc1cc(C(F)(F)F)n2nc(N)c(/N=N/c3c(Br)cc(Br)cc3Br)c2n1` yielded a melting point of 98 to 100 °C.

Turning to `CCCCCCCCCC(=O)OCC`, the melting point was -20 °C.

Take `NC(=S)Cc1ccc(Cl)cc1`: the melting point was in the range of 129 to 131 °C.

The compound `Cc1ccccc1NC(=S)Nc1ccccc1C` gave a melting point of 158 °C.

In turn, `CC(C)(C)OC(=O)N1CCN(c2cc(C(=O)O)ccn2)CC1` had a melting point of 174 to 176 °C.

Compound `ClCc1ccc(-c2ncccn2)cc1` yielded a melting point of 83 to 84.5 °C.

Compound `CC(C=CC=CC(C)=CC=CC(C)=CC=C1C(C)=CC(=O)CC1(C)C)=CC=CC(C)=CC=C1C(C)=CC(=O)CC1(C)C` showed a melting point of 219 °C.

In turn, `O=C(O)c1ccc2c(c1)OCCOCCOCCOCCOCCO2` registered a melting point of 121 to 126 °C.

The compound `OCCN1CCNC1=S` displayed a melting point of 136 to 138 °C.

`O=[N+]([O-])c1cccc2ncccc12` registered a melting point of 74 °C.

For the compound `COc1ccc(C=CC(=O)c2ccccc2)c(OC)c1`, the melting point lay in the range of 69 to 70 °C.

As to `O=[N+]([O-])c1cc(Cl)ccc1F`, the melting point was 8.3 °C.

`CN1C(=O)C(=NNc2ccc(F)cc2)C(=O)N(C)C1=O` had a melting point of 191 °C.

`CN1CCN(Cc2cccc(CO)c2)CC1` displayed a melting point of 51 to 52 °C.

`Cc1cnc(O)c(Br)c1` yielded a melting point of 157 °C.

`O=C(Cl)c1cc(-c2ccco2)on1` gave a melting point of 74 to 76 °C.

In turn, `CN1CCC(CN2c3ccccc3Sc3ccccc32)C1` (centres undefined) returned a melting point of 87 °C.

As to `NC(=S)NC(N)=S`, the melting point fell in the range of 181 to 183 °C.

`O=[N+]([O-])c1ccccc1N1CCCCC1`: the melting point lay within 77 to 79 °C.

In the case of `C#CCCCCCC`, the melting point is -60 °C.

The compound `CC12CCC(C(=O)C(Br)(Br)C1=O)C2(C)C` (centres undefined) yielded a melting point of 155 °C.

Source of the values: a melting point compilation (Tetko et al.).
